Several values for one entry are separate records, joined by “and”; a condition that tells them apart may be missing. Equal entries are not always repeated. Where two headings read alike, the source gives them in different places.
Key:
[1] = system: cyclin K–eGFP degradation reporter; test: Cyclin K reporter stability analysis (dual-color cyclin K–eGFP reporter); type: cell-based, human; settings: Supplementary Table 2; HEK293T cycK-eGFP reporter, 5 h; read-out: Cellular assays DC50
How it was run: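 First, reporter-bearing HEK293T–Cas9 cells are plated at 1 × 10^6 ml^−1. Next, drug or vehicle is added for 5 h. Finally, geometric-mean eGFP and mCherry signals of round, mCherry-positive cells are measured cytometrically, and their ratio is referenced to the DMSO average.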

CDK12–cyclin K = CDK12–cyclin K (Homo sapiens, UniProt Q9NYV4); test: Lanthascreen kinase binding assay, CDK12; settings: for Lanthascreen raw signal, sheet CDK12: series r37, duplicates
Method: (§1) Lanthascreen experiments were performed using commercially available reagents (Thermo Fisher) and according to the manufacturer’s instructions.

CDK9–cyclin T = molecular target: T1, CDK9–cyclin T (Homo sapiens, UniProt P50750); test: Lanthascreen kinase binding assay, CDK9; settings: for Lanthascreen TR-FRET signal (raw ratio), sheet CDK9: third titration set (r25), duplicates
T1 construct: purchased Thermo Fisher
Method: as §1

CDK2–cyclin A = molecular target: T2, CDK2–cyclin A (Homo sapiens, UniProt P24941); test: Lanthascreen kinase binding assay, CDK2; settings: for Lanthascreen signal, sheet CDK2: raw replicates, experiment r36-r46
T2 construct: purchased Thermo Fisher
Method: as §1

CDK12–cyclin K and DDB1 = molecular target: T3, CDK12–cyclin K and DDB1 (Homo sapiens, UniProt Q16531+Q9NYV4, K965R); test: TR-FRET ternary complex formation assay (compound titration); type: binding
T3 construct: His6–CDK12 (a.a. 713–1,052); full-length or beta-propeller B domain deletion (ΔBPB: a.a. 396–705 deleted) constructs of His6–DDB1ΔBPB, StrepII–Avi–DDB1, or His6–Spy–DDB1; made in house; host or cells: Trichoplusia ni High Five insect cells (baculovirus)
How it was run: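 Background fluorescence is reduced by reading 70 μs after excitation, and complex formation is followed as the 520:490 nm fluorescence ratio.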

HEK293T cells = test: Drug sensitivity assay (CellTiter-Glo viability) with or without MLN4924 pretreatment; type: cell-based, human; settings: Supplementary Table 2
How it was run: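 First, cells (HEK293T–Cas9, 0.15 × 10^6 ml^−1) are exposed to DMSO or 100 nM MLN4924. Next, drugs follow at 2 h. Finally, CellTiter-Glo is read at day 3 and normalised to DMSO.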

T3 sequence (Q9NYV4 713-1052 K965R): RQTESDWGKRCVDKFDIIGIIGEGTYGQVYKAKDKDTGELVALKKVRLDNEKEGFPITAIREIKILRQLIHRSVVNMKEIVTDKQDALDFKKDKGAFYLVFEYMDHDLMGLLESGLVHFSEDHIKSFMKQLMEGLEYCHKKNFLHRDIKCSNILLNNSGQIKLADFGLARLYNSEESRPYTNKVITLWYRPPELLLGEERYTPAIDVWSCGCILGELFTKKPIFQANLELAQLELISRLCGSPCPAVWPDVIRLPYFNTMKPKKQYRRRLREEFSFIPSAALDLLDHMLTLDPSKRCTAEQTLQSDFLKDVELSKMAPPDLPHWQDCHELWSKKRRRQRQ
T3 sequence (O75909 1-267 partner): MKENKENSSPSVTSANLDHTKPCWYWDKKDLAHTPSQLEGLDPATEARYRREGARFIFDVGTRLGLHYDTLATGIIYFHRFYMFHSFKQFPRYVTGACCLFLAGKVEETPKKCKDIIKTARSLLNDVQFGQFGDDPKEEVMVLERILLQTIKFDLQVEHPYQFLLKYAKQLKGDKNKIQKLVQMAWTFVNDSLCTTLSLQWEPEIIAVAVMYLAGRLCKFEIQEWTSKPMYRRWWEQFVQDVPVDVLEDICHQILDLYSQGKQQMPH
T3 sequence (Q16531 whole entry): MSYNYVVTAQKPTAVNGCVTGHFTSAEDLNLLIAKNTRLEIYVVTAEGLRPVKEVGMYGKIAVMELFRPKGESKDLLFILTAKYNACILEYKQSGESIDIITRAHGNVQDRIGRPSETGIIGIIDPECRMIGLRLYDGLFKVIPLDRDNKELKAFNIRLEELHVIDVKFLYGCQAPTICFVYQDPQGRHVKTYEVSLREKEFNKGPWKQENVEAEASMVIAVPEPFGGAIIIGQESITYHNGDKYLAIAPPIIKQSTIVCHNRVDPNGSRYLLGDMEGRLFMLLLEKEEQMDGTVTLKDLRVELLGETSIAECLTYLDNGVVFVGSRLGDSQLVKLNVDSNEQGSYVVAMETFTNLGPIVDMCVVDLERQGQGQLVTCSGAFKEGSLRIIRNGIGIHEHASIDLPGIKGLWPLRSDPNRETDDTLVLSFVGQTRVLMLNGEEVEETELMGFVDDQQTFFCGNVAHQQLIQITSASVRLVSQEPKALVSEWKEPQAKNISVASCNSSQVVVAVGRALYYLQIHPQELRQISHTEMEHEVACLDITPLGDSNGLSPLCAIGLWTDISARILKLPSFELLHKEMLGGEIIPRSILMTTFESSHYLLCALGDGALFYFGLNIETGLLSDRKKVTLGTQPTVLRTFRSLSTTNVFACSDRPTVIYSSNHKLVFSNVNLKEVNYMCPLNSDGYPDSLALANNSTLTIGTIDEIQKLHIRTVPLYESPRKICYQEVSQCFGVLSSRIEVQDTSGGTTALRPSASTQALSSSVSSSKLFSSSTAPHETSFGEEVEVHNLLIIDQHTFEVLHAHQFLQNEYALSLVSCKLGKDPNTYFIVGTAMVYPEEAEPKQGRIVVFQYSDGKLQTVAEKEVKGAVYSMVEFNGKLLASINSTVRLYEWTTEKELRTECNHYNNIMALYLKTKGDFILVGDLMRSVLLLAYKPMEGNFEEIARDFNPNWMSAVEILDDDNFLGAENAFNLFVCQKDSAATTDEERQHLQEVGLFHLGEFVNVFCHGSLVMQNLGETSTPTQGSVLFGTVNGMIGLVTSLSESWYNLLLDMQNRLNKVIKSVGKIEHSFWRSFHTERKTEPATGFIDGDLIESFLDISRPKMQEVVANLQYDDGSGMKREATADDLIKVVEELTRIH
T1 sequence (P50750 whole entry): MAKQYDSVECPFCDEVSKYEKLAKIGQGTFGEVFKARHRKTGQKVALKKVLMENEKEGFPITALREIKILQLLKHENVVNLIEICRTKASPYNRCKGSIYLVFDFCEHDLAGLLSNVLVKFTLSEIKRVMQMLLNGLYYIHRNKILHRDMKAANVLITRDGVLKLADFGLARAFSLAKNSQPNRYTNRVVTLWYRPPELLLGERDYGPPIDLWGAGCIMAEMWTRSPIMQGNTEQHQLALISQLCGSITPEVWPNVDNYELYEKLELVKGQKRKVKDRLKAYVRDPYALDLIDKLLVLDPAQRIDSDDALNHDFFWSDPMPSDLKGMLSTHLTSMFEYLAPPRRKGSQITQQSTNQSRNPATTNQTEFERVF
T1 sequence (O60563 whole entry partner): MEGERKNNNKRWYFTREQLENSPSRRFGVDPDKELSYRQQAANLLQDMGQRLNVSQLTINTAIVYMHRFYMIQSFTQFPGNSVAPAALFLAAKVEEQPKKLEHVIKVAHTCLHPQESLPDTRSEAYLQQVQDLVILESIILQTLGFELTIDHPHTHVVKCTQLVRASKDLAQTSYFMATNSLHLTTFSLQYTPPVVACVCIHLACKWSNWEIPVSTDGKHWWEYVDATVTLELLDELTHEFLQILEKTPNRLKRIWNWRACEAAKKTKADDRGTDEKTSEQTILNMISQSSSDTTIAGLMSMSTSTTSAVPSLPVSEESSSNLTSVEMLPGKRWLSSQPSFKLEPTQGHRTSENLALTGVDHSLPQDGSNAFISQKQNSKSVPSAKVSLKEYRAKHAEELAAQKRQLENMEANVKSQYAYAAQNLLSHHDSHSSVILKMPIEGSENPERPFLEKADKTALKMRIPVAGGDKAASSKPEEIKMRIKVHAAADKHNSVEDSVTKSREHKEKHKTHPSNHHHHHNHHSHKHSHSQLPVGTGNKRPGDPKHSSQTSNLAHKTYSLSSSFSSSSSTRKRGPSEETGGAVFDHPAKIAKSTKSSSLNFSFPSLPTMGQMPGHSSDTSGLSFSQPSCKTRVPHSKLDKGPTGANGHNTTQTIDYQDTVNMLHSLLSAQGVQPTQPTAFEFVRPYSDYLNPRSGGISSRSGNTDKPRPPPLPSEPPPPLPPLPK
CDK12–cyclin K, sequence (Q9NYV4 713-1052): as the sequence (Q9NYV4 713-1052 K965R) above, with R253K counted along it
CDK12–cyclin K, sequence (O75909 1-267 partner limits assumed): as the sequence (O75909 1-267 partner) above

- DC50 [1]: > 10 µM
- IC50 (CDK12–cyclin K; Lanthascreen, average, Extended Data Fig. 8, read-out: CDK12 IC50): > 10000 nM
- IC50 (CDK12–cyclin K; Supplementary Table 2, read-out: Lanthascreen IC50 [nM] CDK12): > 10000 nM
- Lanthascreen raw signal, sheet CDK12 (CDK12–cyclin K; compound 0.038147 nM): 0.01392 and 0.01331
- Lanthascreen raw signal, sheet CDK12 (CDK12–cyclin K; compound 0.152588 nM): 0.01475 and 0.01452
- Lanthascreen raw signal, sheet CDK12 (CDK12–cyclin K; compound 0.610352 nM): 0.01495
- Lanthascreen raw signal, sheet CDK12 (CDK12–cyclin K; compound 9.76563 nM): 0.01647 and 0.01469
- Lanthascreen raw signal, sheet CDK12 (CDK12–cyclin K; compound 39.0625 nM): 0.0142 and 0.01474
- Lanthascreen raw signal, sheet CDK12 (CDK12–cyclin K; compound 156.25 nM): 0.01388 and 0.01469
- Lanthascreen raw signal, sheet CDK12 (CDK12–cyclin K; compound 625 nM): 0.01464 and 0.015
- Lanthascreen raw signal, sheet CDK12 (CDK12–cyclin K; compound 2500 nM): 0.01337 and 0.01367
- Lanthascreen raw signal, sheet CDK12 (CDK12–cyclin K; compound 10000 nM): 0.01057 and 0.01115
- IC50 (CDK9–cyclin T; Supplementary Table 2, read-out: Lanthascreen IC50 [nM] CDK9): 3200 nM
- Lanthascreen TR-FRET signal (raw ratio), sheet CDK9 (CDK9–cyclin T; compound 0.038147 nM): 0.01966 and 0.01664
- Lanthascreen TR-FRET signal (raw ratio), sheet CDK9 (CDK9–cyclin T; compound 0.152588 nM): 0.02094 and 0.01978
- Lanthascreen TR-FRET signal (raw ratio), sheet CDK9 (CDK9–cyclin T; compound 0.610352 nM): 0.02169 and 0.01748
- Lanthascreen TR-FRET signal (raw ratio), sheet CDK9 (CDK9–cyclin T; compound 9.76563 nM): 0.02175 and 0.01903
- Lanthascreen TR-FRET signal (raw ratio), sheet CDK9 (CDK9–cyclin T; compound 39.0625 nM): 0.02145 and 0.01745
- Lanthascreen TR-FRET signal (raw ratio), sheet CDK9 (CDK9–cyclin T; compound 156.25 nM): 0.02109 and 0.01723
- Lanthascreen TR-FRET signal (raw ratio), sheet CDK9 (CDK9–cyclin T; compound 625 nM): 0.02056 and 0.01753
- Lanthascreen TR-FRET signal (raw ratio), sheet CDK9 (CDK9–cyclin T; compound 2500 nM): 0.01726 and 0.0135
- Lanthascreen TR-FRET signal (raw ratio), sheet CDK9 (CDK9–cyclin T; compound 10000 nM): 0.01114 and 0.009536
- Lanthascreen signal, sheet CDK2 (CDK2–cyclin A; Compound 0.038147 nM): 0.01372 and 0.01355
- Lanthascreen signal, sheet CDK2 (CDK2–cyclin A; Compound 0.152588 nM): 0.01402 and 0.01425
- Lanthascreen signal, sheet CDK2 (CDK2–cyclin A; Compound 0.610352 nM): 0.0137 and 0.01464
- Lanthascreen signal, sheet CDK2 (CDK2–cyclin A; Compound 9.76563 nM): 0.01391 and 0.01419
- Lanthascreen signal, sheet CDK2 (CDK2–cyclin A; Compound 39.0625 nM): 0.01392 and 0.01397
- Lanthascreen signal, sheet CDK2 (CDK2–cyclin A; Compound 156.25 nM): 0.01435 and 0.01404
- Lanthascreen signal, sheet CDK2 (CDK2–cyclin A; Compound 625 nM): 0.01359 and 0.01432
- Lanthascreen signal, sheet CDK2 (CDK2–cyclin A; Compound 2500 nM): 0.01402 and 0.01364
- Lanthascreen signal, sheet CDK2 (CDK2–cyclin A; Compound 10000 nM): 0.01203 and 0.01167
- IC50 (CDK2–cyclin A; Lanthascreen, average, Extended Data Fig. 8, read-out: CDK2 IC50): > 10000 nM
- IC50 (CDK2–cyclin A; Supplementary Table 2, read-out: Lanthascreen IC50 [nM] CDK2): > 10000 nM
- TR-FRET signal at compound concentration 4.68 nM (CDK12–cyclin K and DDB1; compound concentration 4.68 nM, raw replicate titration data): 0.1341 and 0.1393
- TR-FRET signal at compound concentration 21.6 nM (CDK12–cyclin K and DDB1; compound concentration 21.6 nM, raw replicate titration data): 0.1505 and 0.1671
- TR-FRET signal at compound concentration 36 nM (CDK12–cyclin K and DDB1; compound concentration 36 nM, raw replicate titration data): 0.1763 and 0.1953
- TR-FRET signal at compound concentration 79.2001 nM (CDK12–cyclin K and DDB1; compound concentration 79.2001 nM, raw replicate titration data): 0.2244 and 0.2373
- TR-FRET signal at compound concentration 158.4 nM (CDK12–cyclin K and DDB1; compound concentration 158.4 nM, raw replicate titration data): 0.3075 and 0.3209
- TR-FRET signal at compound concentration 309.6 nM (CDK12–cyclin K and DDB1; compound concentration 309.6 nM, raw replicate titration data): 0.4615 and 0.4691
- TR-FRET signal at compound concentration 626.401 nM (CDK12–cyclin K and DDB1; compound concentration 626.401 nM, raw replicate titration data): 0.7336 and 0.7393
- TR-FRET signal at compound concentration 1252.8 nM (CDK12–cyclin K and DDB1; compound concentration 1252.8 nM, raw replicate titration data): 1.129 and 1.14
- TR-FRET signal at compound concentration 2448 nM (CDK12–cyclin K and DDB1; compound concentration 2448 nM, raw replicate titration data): 1.631 and 1.657
- TR-FRET signal at compound concentration 9936.01 nM (CDK12–cyclin K and DDB1; compound concentration 9936.01 nM, raw replicate titration data): 2.437 and 2.497
- TR-FRET signal at compound concentration 20016 nM (CDK12–cyclin K and DDB1; compound concentration 20016 nM, raw replicate titration data): 2.527 and 2.638
- DDB1–CDK12 complex formation, result in words (CDK12–cyclin K and DDB1; in vitro TR-FRET): poorer glues
- EC50 (CDK12–cyclin K and DDB1; sheet MOESM7, read-out: log TR-FRET EC50 (converted)): 1.84 µM
Structure (SMILES): CC[C@H](CO)Nc1nc(NCc2ccc(-c3ccccn3)cc2)c2ncn(-c3cnn(C)c3)c2n1 [DS20]
- EC50 (HEK293T cells; Homo sapiens, HEK-293T, HEK293T viability, 72 h, compound alone, read-out: Cellular assays EC50): > 10 µM
- Toxicity rescue (HEK293T cells; MLN4924-mediated cytotoxicity rescue, 10 µM used where n.d.): 0%
